# From patent US10533006B2, “Nitrogen-containing heterocycle and carbocycle derivatives having TrkA inhibitory activity” (Shionogi & Co., Ltd., priority 2016, dated 2020)
# Target: T1, human TrkA (Homo sapiens, UniProt P04629)
# T1 construct: purchased Lifetechnologies PV3144
# Experiment: Human TrkA inhibition assay
# Type: biochemical
# Conditions: human TrkA phosphorylation inhibition, ATP 500 μmol/L; read-out: IC50_nM
# Protocol: Seven point five L per well of human TrkA (PV3144, Lifetechnologies, final concentration: 1 nmol/L) suspended in the assay buffer (100 mmol/L 4-(2-hydroxyethyl)-1-piperazineethanesulfonic acid (HEPES), 10 mmol/L magnesium chloride, 0.003 vol % Brij-35, 0.004 vol % Tween20 and 1 mmol/L dithiothreitol (DTT)) was applied in a 384 well plate and the plate was pre-incubated for 15 min at room temperature with 0.4 μL of each compound (final concentration: 200 μmol/L-0.1 nM) dissolved in DMSO. Then, fluorescent substrate (FL-peptide 27, 760424, PerkinElmer, final concentration: 1.5 μmol/L) and ATP (final concentration 500 μmol/L) dissolved in the assay buffer was added in each well. After the incubation of 120 min at 37° C., fifteen μL of termination buffer (100 mmol/L HEPES, 40 mmol/L ethylenediaminetetraacetic acid (EDTA), 10 mmol/L magnesium chloride, 0.003 vol % Brij-35, 0.004 vol % Tween20, 1 mmol/L DTT and 0.16 vol % Coating Reagent 3) was added in each well to stop the enzyme reaction. Fluorescent intensities (FI) of phosphorylated and non-phosphorylated fluorescent substrates were measured by LabChip EZReader II (Caliper LifeSciences, Inc.), and conversion ratio (CR) was calculated by the following formula-1. The CR in the well applied with DMSO alone was used as a negative control and the CR in the well without applying TrkA was used as a positive control. The inhibitory effect of each compound on TrkA phosphorylation was calculated by the following formula-2. CR (%)=(FI of phosphorylated substrate/(FI of phosphorylated substrate+FI of non-phosphorylated substrate))×100 (Formula-1) Phosphorylation inhibition (%)=(1−(CR with compound treatment−CR of positive control)/(CR of negative control−CR of positive control))×100 (Formula-2)
# IC50 values (nmol/L) were determined by the logistic regression using the inhibition data in 10 points of 3-fold dilution series at a compound concentration range of 2 μmol/L to 0.1 nmol/L, or 15 points of 3-fold dilution series at the range of 200 μmol/L to 0.04 nmol/L.
# T1 sequence (P04629 33-796): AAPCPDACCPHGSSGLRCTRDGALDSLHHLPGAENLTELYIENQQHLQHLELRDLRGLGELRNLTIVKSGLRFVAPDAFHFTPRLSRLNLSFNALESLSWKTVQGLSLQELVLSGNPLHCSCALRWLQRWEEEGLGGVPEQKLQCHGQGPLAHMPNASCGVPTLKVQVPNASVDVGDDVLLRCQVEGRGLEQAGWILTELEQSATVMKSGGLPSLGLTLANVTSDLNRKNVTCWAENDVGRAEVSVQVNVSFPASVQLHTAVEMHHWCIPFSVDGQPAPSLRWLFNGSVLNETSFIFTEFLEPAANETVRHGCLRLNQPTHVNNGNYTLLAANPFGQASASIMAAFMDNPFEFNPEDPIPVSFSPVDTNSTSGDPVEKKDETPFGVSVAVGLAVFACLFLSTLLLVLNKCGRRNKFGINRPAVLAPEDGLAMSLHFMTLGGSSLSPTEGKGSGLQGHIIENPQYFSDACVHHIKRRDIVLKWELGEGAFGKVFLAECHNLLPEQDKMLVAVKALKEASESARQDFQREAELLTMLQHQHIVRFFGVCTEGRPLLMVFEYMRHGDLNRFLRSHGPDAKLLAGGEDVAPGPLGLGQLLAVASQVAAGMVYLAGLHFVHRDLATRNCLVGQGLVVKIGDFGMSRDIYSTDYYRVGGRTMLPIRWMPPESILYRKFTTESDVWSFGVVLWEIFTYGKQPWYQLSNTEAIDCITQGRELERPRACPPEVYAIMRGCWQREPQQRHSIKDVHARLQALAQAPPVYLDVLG
row,IC50 [nM],Structure (SMILES)
1,< 100,COCC[C@@H]1C[C@@H](NC(=O)Nc2c(C)c(-c3ccc4c(cnn4C)c3)nn2-c2ccccc2)[C@H](c2ccc(F)c(F)c2)N1C [Compound I-9]
2,< 100,COCCN1C[C@@H](NC(=O)Nc2c(C)c(-c3cnc4nc(C)nn4c3)nn2-c2ccccc2)[C@H](c2ccccc2)C1 (racemic) [Compound I-32]
3,< 100,COCCN1C[C@@H](NC(=O)Nc2c(C)c(-c3cnc(OC)c(C(=O)N[C@H]4CCOC4)c3)nn2-c2ccccc2)[C@H](c2ccccc2)C1 [Compound I-80]
4,< 100,COCCN1C[C@@H](NC(=O)Nc2c(C)c(-c3ccnc(N=S(C)(C)=O)c3)nn2-c2ccccc2)[C@H](c2ccccc2)C1 (racemic) [Compound I-96]
5,< 100,COCCN1C[C@@H](NC(=O)Nc2c(C)c(-c3cnn(C)c3)nn2-c2ccccc2)[C@H](c2cnc(Cl)c(F)c2)C1 (racemic) [Compound I-16]
6,< 100,COCCN1C[C@@H](NC(=O)Nc2c(C)c(-c3ccnc(C(N)=O)c3)nn2-c2ccccc2)[C@H](c2ccccc2)C1 (racemic) [Compound I-44]
7,< 100,COCCN1C[C@@H](NC(=O)Nc2c(C)c(-c3cnc4c(c3)c(OC)nn4C)nn2-c2ccccc2)[C@H](c2ccccc2)C1 (racemic) [Compound I-95]
8,< 100,CNC(=O)c1cc(-c2nn(-c3ccccc3)c(NC(=O)N[C@@H]3C[C@@H](CCOC)C[C@H]3c3ccccc3)c2C)cnc1OC [Compound I-144]
9,< 100,COCCN1C[C@@H](NC(=O)Nc2c(C)c(-c3cc(C(=O)NC4CCS(=O)(=O)CC4)c(=O)n(C)c3)nn2-c2ccccc2)[C@H](c2ccccc2)C1 (racemic) [Compound I-110]
10,< 100,COCC[C@@H]1C[C@@H](NC(=O)Nc2c3c(nn2-c2ccccc2)CCC3)[C@H](c2ccnc(F)c2)N1C [Compound I-177]
11,< 100,CCNC(=O)c1cc(-c2nn(-c3ccccc3)c(NC(=O)N[C@@H]3CN(CCOC)C[C@H]3c3ccccc3)c2C)cnc1OCF (racemic) [Compound I-132]
12,< 100,CCNC(=O)c1cc(-c2nn(-c3ccccc3)c(NC(=O)N[C@@H]3CN(CCOC)C[C@H]3c3ccccc3)c2C)cnc1OCC (racemic) [Compound I-129]
13,< 100,COCCOc1ncc(-c2nn(-c3ccccc3)c(NC(=O)N[C@@H]3CN(CCOC)C[C@H]3c3ccccc3)c2C)cc1C(=O)NC1CCOCC1 (racemic) [Compound I-141]
14,< 100,COCCN1C[C@@H](NC(=O)Nc2c(C)c(-c3cnc(OC)c(C(=O)NC4CCS(=O)(=O)CC4)c3)nn2-c2ccccc2)[C@H](c2ccccc2)C1 (racemic) [Compound I-79]
15,> 1000,Cc1c(-c2cnn(C)c2)nn(-c2ccccc2)c1NC(=O)N[C@@H]1CN(Cc2ccccc2)C[C@H]1c1ccnc(F)c1 (racemic) [Compound I-18]
16,< 100,COCCN1C[C@@H](NC(=O)Nc2c(C)c(N3CCc4c(cnn4C)C3)nn2-c2ccccc2)[C@H](c2ccccc2)C1 [Compound I-58]
17,< 100,COCCN1C[C@@H](NC(=O)Nc2c(C)c(-c3ccnc(C(=O)N[C@H]4CC[C@H](O)CC4)c3)nn2-c2ccccc2)[C@H](c2ccccc2)C1 [Compound I-74]
18,< 100,COCCN1C[C@@H](NC(=O)Nc2c(C)c(-c3cnc(OCC(F)F)c(C(=O)NC4CCOCC4)c3)nn2-c2ccccc2)[C@H](c2ccccc2)C1 (racemic) [Compound I-142]
19,< 100,COCC[C@@H]1C[C@@H](NC(=O)Nc2c(C)c(-c3cc(C)c(=O)n(C)c3)nn2-c2ccccc2)[C@H](c2ccccc2)C1 [Compound I-103]
20,< 100,CCNC(=O)c1cc(-c2nn(-c3ccccc3)c(NC(=O)N[C@@H]3CN(CCOC)C[C@H]3c3ccccc3)c2C)cnc1OCC(F)F (racemic) [Compound I-131]
21,< 100,COCCN1C[C@@H](NC(=O)Nc2c(C)c(-c3cnc(OC)c(C(=O)N[C@@H]4CCOC4)c3)nn2-c2ccccc2)[C@H](c2ccccc2)C1 [Compound I-84]

row,IC50 [nM],Structure (SMILES)
1,< 100,CNC(=O)c1cc(-c2nn(-c3ccccc3)c(NC(=O)N[C@@H]3CN(CCOC)C[C@H]3c3ccccc3)c2C)cn(CCOC)c1=O (racemic) [Compound I-127]
2,< 100,COCCN1C[C@@H](NC(=O)Nc2c(C)c(-c3cnc4ncnn4c3)nn2-c2ccccc2)[C@H](c2ccccc2)C1 (racemic) [Compound I-33]
3,< 100,COCCN1C[C@@H](NC(=O)Nc2c(C)c(-c3ccc(C(=O)N(C)C)nc3)nn2-c2ccccc2)[C@H](c2ccccc2)C1 (racemic) [Compound I-36]
4,< 100,CCNC(=O)c1cc(-c2nn(-c3ccccc3)c(NC(=O)N[C@@H]3CN(CCOC)C[C@H]3c3ccccc3)c2C)cnc1OCCOC (racemic) [Compound I-130]
5,< 100,COCCN1C[C@@H](NC(=O)Nc2c(C)c(-c3cnc(OCF)c(C(=O)NC4CCOCC4)c3)nn2-c2ccccc2)[C@H](c2ccccc2)C1 (racemic) [Compound I-143]
6,< 100,COCCN1C[C@@H](NC(=O)Nc2c(C)c(-c3cnc4ccnn4c3)nn2-c2ccccc2)[C@H](c2ccccc2)C1 (racemic) [Compound I-40]
7,< 100,COCCN1C[C@@H](NC(=O)Nc2c(C)c(-c3cc(C(=O)NC(C)(C)CO)c(=O)n(C)c3)nn2-c2ccccc2)[C@H](c2ccccc2)C1 (racemic) [Compound I-115]
8,< 100,COCCN1C[C@@H](NC(=O)Nc2c(C)c(-c3ccnc(C(=O)NC4CCS(=O)(=O)CC4)c3)nn2-c2ccccc2)[C@H](c2ccccc2)C1 (racemic) [Compound I-73]
9,< 100,COCCN1C[C@@H](NC(=O)Nc2c(C)c(-c3cnc4nc(C)oc4c3)nn2-c2ccccc2)[C@H](c2ccccc2)C1 (racemic) [Compound I-34]
10,< 100,COCCN1C[C@@H](NC(=O)Nc2c(C)c(-c3cc(C(=O)NC4CCOCC4)c(=O)n(CCOC)c3)nn2-c2ccccc2)[C@H](c2ccccc2)C1 (racemic) [Compound I-136]
11,< 100,CCNC(=O)c1cc(-c2nn(-c3ccccc3)c(NC(=O)N[C@@H]3CN(CCOC)C[C@H]3c3ccccc3)c2C)cnc1OC (racemic) [Compound I-55]
12,< 100,CCN1CCC(NC(=O)c2cc(-c3nn(-c4ccccc4)c(NC(=O)N[C@@H]4CN(CCOC)C[C@H]4c4ccccc4)c3C)ccn2)CC1 (racemic) [Compound I-43]
13,> 1000,COCCN1C[C@H](NC(=O)Nc2c(C)c(-c3cnc4c(cnn4C)c3)nn2-c2ccccc2)[C@@H](c2ccnc(F)c2)C1 [Compound I-160]
14,< 100,COCCN1C[C@@H](NC(=O)Nc2c(C)c(-c3cnc4c(ccn4C)c3)nn2-c2ccccc2)[C@H](c2ccccc2)C1 (racemic) [Compound I-38]
15,< 100,Cc1c(-c2ccc3c(cnn3C)c2)nn(-c2ccccc2)c1NC(=O)N[C@@H]1C[C@@H](CCOC(F)(F)F)C[C@H]1c1ccc(F)c(F)c1 [Compound I-11]
16,< 100,COCCN1C[C@@H](NC(=O)Nc2c(C)c(-c3cnc4c(c3)c(N=S(C)(C)=O)nn4C)nn2-c2ccccc2)[C@H](c2ccc(F)c(F)c2)C1 [Compound I-163]
17,< 100,CCNC(=O)c1cc(-c2nn(-c3ccccc3)c(NC(=O)N[C@@H]3CN(CCOC)C[C@H]3c3ccccc3)c2C)cnc1OC(F)F (racemic) [Compound I-134]
18,< 100,CNC(=O)c1cc(-c2nn(-c3ccccc3)c(NC(=O)N[C@@H]3C[C@@H](CCOC)C[C@H]3c3ccccc3)c2C)cn(C)c1=O [Compound I-117]
19,< 100,COCCN1C[C@@H](NC(=O)Nc2c(C)c(-c3ccc(N=S(C)(C)=O)nc3)nn2-c2ccccc2)[C@H](c2ccccc2)C1 (racemic) [Compound I-91]
20,< 100,COCC[C@@H]1C[C@@H](NC(=O)Nc2c(C)c(-c3ccc(O)nc3)nn2-c2ccccc2)[C@H](c2ccc(F)c(F)c2)N1C [Compound I-14]
21,< 100,COCCN1C[C@@H](NC(=O)Nc2c(C)c(-c3ccc(C(N)=O)nc3)nn2-c2ccccc2)[C@H](c2ccccc2)C1 (racemic) [Compound I-42]

# Same assay, conditions: human TrkA phosphorylation inhibition, ATP 500 μmol/L; read-out: IC50 value
row,IC50 [nM],Structure (SMILES)
1,0.81,CCN1CCC(NC(=O)c2ccc(-c3nn(-c4ccccc4)c(NC(=O)N[C@@H]4C[C@@H](CCOC)C[C@H]4c4ccccc4)c3C)cc2)CC1 [Compound I-24]
2,1.5,COCCN1C[C@@H](NC(=O)Nc2c(C)c(-c3ccc(N=S(C)(C)=O)nc3)nn2-c2ccccc2)[C@H](c2ccc(F)c(F)c2)C1 [Compound I-151]
3,0.98,COCCN1C[C@@H](NC(=O)Nc2c(C)c(-c3cc(C(=O)NC4CCOCC4)c(=O)n(C)c3)nn2-c2ccccc2)[C@H](c2ccccc2)C1 (racemic) [Compound I-56]
4,2.2,COCCN1C[C@@H](NC(=O)Nc2c(C)c(-c3cnc4c(cnn4C)c3)nn2-c2ccccc2)[C@H](c2ccnc(F)c2)C1 (racemic) [Compound I-90]
